Data on 4 compounds can be found in paper PMC4644816, “A Tetrameric Peptide Derived from Bovine Lactoferricin Exhibits Specific Cytotoxic Effects against Oral Squamous-Cell Carcinoma Cell Lines” (BioMed Research International, 2015).

Where a SMILES comes first, the peptide text is derived from it. Bridges are numbered along the chain shown (N, C = ends). Roman numbers before positions name the chains, in order. Where no end group is shown, it is not given here. [ ]: non-standard residue; d: D form. Ahx = NCCCCCC(=O)O

For data set [1], the system named is CAL27 cells. The experiment in a line: MTT cytotoxic assay, CAL27. It counts as cell-based. Here is the method: (§1) The cell lines CAL27 (ATCC CRL-2095) and SCC15 (ATCC CRL-1623) and the human immortalized nontumorigenic epithelial esophagus cell line Het-1A (ATCC CRL-2692) were purchased from ATCC (Manassas, VA). CAL27 cells were cultured in Dulbecco's Modified Eagle's Medium (DMEM; Gibco) with 10% of fetal bovine serum (FBS; Gibco). […] Het-1A cells were cultured in Bronchial Epithelial Cell Growth Medium (BEBM) with the additives obtained from Lonza/Clonetics Corporation as a kit (CC-3170), without antibiotics. All cells were maintained at 37°C in a 5% CO2 humidified atmosphere. For Het-1A cells, the culture flasks were precoated with fibronectin (0.01 mg/mL), bovine collagen type I (0.03 mg/mL), and bovine serum albumin (0.01 mg/mL) dissolved in a culture medium and incubated for 24 h before culturing the cells. Cell stocks were prepared and thawed periodically and used in early subcultures (not exceeding 5–10 population doublings). Cell viability was estimated by Trypan blue exclusion staining and was always higher than 97%. Growth curves for each cell line were done using 3-(4,5-dimethylthiazol-2-yl)-2,5-diphenyltetrazolium bromide (MTT). […] SCC15 cells having a mesenchymal- or epithelia-like phenotype were separated by their differential adherence to plastic dish and characterized for the expression of specific markers (see Section 2.7). Cytotoxic activity was determined using the MTT assay. Briefly, cells were seeded in 96-well plates with a confluence of approximately 70% (8 × 10^3 CAL27-cells/well, 4 × 10^3 SCC15-cells/well, and 1.6 × 10^4 Het-1A-cells/well). After cell adherence, the culture medium was removed and peptides at different concentrations (between 100 and 6.25 μg/mL) and times (between 1 and 24 h or 48, 72, and 96 h) were added to the wells in the absence of FBS. Staurosporine (STA) was used as positive control (CAL27: 0.4 μg/mL, SCC15 0.6 μg/mL, and Het-1A 0.6 μg/mL). Phase-contrast photomicrographs of the treated cells were taken (Nikon, Eclipse TS500). After treatment, the medium was replaced with 100 μL of complete culture media with 10% of MTT (5 mg/mL), and cells were incubated for 4–6 h. Finally, 100 μL of DMSO was added in order to lyse the cells and release and solubilize the Formazan crystals. After 10 min of incubation at 37°C, absorbance was measured at 550 nm. […] In some experiments and after treatments, remaining viable cells were treated again with peptides. Cells were first treated with peptides for 24 h and washed carefully and then fresh culture medium was added and cells were further incubated for 72 h.
For orientation: Tetrazolium assays rely on reduction of a dye to a coloured formazan, in cell work by metabolically active cells.

Data set [2] deals with Het-1A cells. The experiment in a line: Apoptotic/necrotic assay (Annexin V-FITC/PI flow cytometry), Het-1A. The conditions noted are these: 1 h treatment. (In general: A flow cytometer gives signals particle by particle.)
Description: (§2) 1 × 10^5 CAL27 and Het-1A cells were treated with peptides for 1 h at 37°C and then labeled with Annexin V-FITC/PI, using the Dead Cell Apoptosis Kit for flow cytometry (Thermo Fisher Scientific). As a control for necrosis, the cells were treated for 5 min with 0.2% T-X100.
The subject of data set [3] is normal human erythrocytes. The format is cell-based. Here is the method: 5 mL of heparinized peripheral blood was centrifuged at 1000 g for 7 min. The erythrocyte-rich fraction was resuspended in 10 mL of PBS and washed twice by centrifugation at 1000 g for 7 min. […] PBS was used as negative control, while Tween-20 (20% v/v) in PBS was used as positive controls. The 96-well plates were centrifuged, the supernatants were collected, and the absorbance was determined at 540 nm.

The subject of data set [4] is CAL27 cells. The experiment in a line: Apoptotic/necrotic assay (Annexin V-FITC/PI flow cytometry), CAL27. The conditions noted are these: CAL27, 1 h treatment.
Description: as §2
Data set [5] concerns Het-1A cells. The experiment in a line: MTT cytotoxic assay, Het-1A. The format is cell-based, human. The protocol: as §1
The subject of the next data set is SCC15 cells. The experiment in a line: MTT cytotoxic assay, SCC15. It counts as cell-based. Here is the method: as §1

As for `N=C(N)NCCC[C@H](NC(=O)[C@H](Cc1c[nH]c2ccccc12)NC(=O)[C@H](CCC(N)=O)NC(=O)[C@H](Cc1c[nH]c2ccccc12)NC(=O)[C@H](CCCNC(=N)N)NC(=O)[C@@H](N)CCCNC(=N)N)C(=O)NCCCC[C@H](NC(=O)[C@H](CCCNC(=N)N)NC(=O)[C@H](Cc1c[nH]c2ccccc12)NC(=O)[C@H](CCC(N)=O)NC(=O)[C@H](Cc1c[nH]c2ccccc12)NC(=O)[C@H](CCCNC(=N)N)NC(=O)[C@@H](N)CCCNC(=N)N)C(=O)NCCCCCC(=O)N[C@@H](CSSC[C@H](NC(=O)CCCCCNC(=O)[C@H](CCCCNC(=O)[C@H](CCCNC(=N)N)NC(=O)[C@H](Cc1c[nH]c2ccccc12)NC(=O)[C@H](CCC(N)=O)NC(=O)[C@H](Cc1c[nH]c2ccccc12)NC(=O)[C@H](CCCNC(=N)N)NC(=O)[C@@H](N)CCCNC(=N)N)NC(=O)[C@H](CCCNC(=N)N)NC(=O)[C@H](Cc1c[nH]c2ccccc12)NC(=O)[C@H](CCC(N)=O)NC(=O)[C@H](Cc1c[nH]c2ccccc12)NC(=O)[C@H](CCCNC(=N)N)NC(=O)[C@@H](N)CCCNC(=N)N)C(N)=O)C(N)=O` [LfcinB(20–25)4] (I: H-RRWQWRK[Ahx]C-NH2 / II: H-RRWQWRK[Ahx]C-NH2 / III: H-RRWQWR / IV: H-RRWQWR; amide I:7-III:C, II:7-IV:C; disulfide I:9-II:9; N-terminus and C-terminus assumed), the “cytotoxicity of a second addition of the peptide (in words)” value in the data set on CAL27 cells [1] is recorded as “reduced to the same extent as the one obtained after the first treatment”. Besides, the 50% inhibitory concentration (IC50) in the data set with CAL27 cells [1] (1 h) was found to be 16 ± 1.36 µM; with CAL27 cells [1] (3 h) it was 17.4 ± 1.77 µM; with CAL27 cells [1] (24 h), 9.02 ± 1.38 µM; in the data set with Het-1A cells [5] (3 h), 18.8 ± 1.11 µM; with Het-1A cells [5] (24 h), 17.4 ± 1.11 µM; with SCC15 cells (1 h), 13.6 ± 1.06 µM. The IC50 is 12.6 ± 1.06 µM in the data set with SCC15 cells (3 h) and 9.05 ± 1.07 µM with SCC15 cells (24 h). The “apoptotic cell population (PI−/Annexin+), in words” value in the data set on Het-1A cells [2] and with CAL27 cells [4] was “not detected” each time. For the same compound, the “concentration at which lysis of erythrocytes was shown” value in data set [3] amounted to 500 µg/mL.

Turning to “RRWQWR-NH2 (C-terminus assumed) [LfcinB(20–25)]”, the IC50 with CAL27 cells [1] (1 h), in the data set on CAL27 cells [1] (3 h), with CAL27 cells [1] (24 h), in the data set on Het-1A cells [5] (1 h), in the data set on Het-1A cells [5] (3 h) and in the data set with Het-1A cells [5] (24 h) was more than 101 µM each time. The IC50 with SCC15 cells (1 h), in the data set with SCC15 cells (3 h) and in the data set with SCC15 cells (24 h) was more than 101 µM each time.

`CC[C@H](C)[C@H](NC(=O)[C@H](CO)NC(=O)[C@@H]1CCCN1C(=O)[C@H](C)NC(=O)CNC(=O)[C@H](CC(C)C)NC(=O)[C@H](CCCCN)NC(=O)[C@H](CCCCN)NC(=O)[C@H](CCSC)NC(=O)[C@H](CCCNC(=N)N)NC(=O)[C@H](Cc1c[nH]c2ccccc12)NC(=O)[C@H](CCC(N)=O)NC(=O)[C@H](Cc1c[nH]c2ccccc12)NC(=O)[C@H](CCCNC(=N)N)NC(=O)[C@H](CCCNC(=N)N)NC(=O)[C@H](CS)NC(=O)[C@H](CCCCN)NC(=O)[C@@H](N)Cc1ccccc1)C(=O)N[C@H](C(=O)N[C@@H](CS)C(=O)N[C@H](C(=O)N[C@@H](CCCNC(=N)N)C(=O)N[C@@H](CCCNC(=N)N)C(=O)N[C@@H](C)C(=O)N[C@@H](Cc1ccccc1)C(N)=O)C(C)C)[C@@H](C)O` [LfcinB25, reference compound]: the cytotoxicity with CAL27 cells [1] (CAL27, 24 h, highest concentration tested 100 μg/mL (LfB 1.25 μM, LfcinB25 32 μM, LfcinB(20–25)4 22.25 μM), MTT) was 64.4%; with Het-1A cells [5] (Het-1A, 24 h, highest concentration tested 100 μg/mL (LfB 1.25 μM, LfcinB25 32 μM, LfcinB(20–25)4 22.25 μM), MTT), 60.5%; in the data set with SCC15 cells (SCC15, 24 h, highest concentration tested 100 μg/mL (LfB 1.25 μM, LfcinB25 32 μM, LfcinB(20–25)4 22.25 μM), MTT), 60%.

Take “RWQWRWQWR-NH2 (C-terminus assumed) [LfcinB-Pal]”: the IC50 in the data set with CAL27 cells [1] (1 h) is 22.8 ± 1.12 µM; with CAL27 cells [1] (3 h), 22.6 ± 1.02 µM; in the data set with CAL27 cells [1] (24 h), 21.5 ± 1.05 µM; in the data set with Het-1A cells [5] (1 h), more than 67.3 µM; in the data set with Het-1A cells [5] (3 h) it was 62.2 ± 1.56 µM; in the data set with Het-1A cells [5] (24 h), more than 67.3 µM. Also, the IC50 with SCC15 cells (1 h), in the data set with SCC15 cells (3 h) and in the data set with SCC15 cells (24 h) was more than 67.3 µM throughout. Also, the “cytotoxic effect (in words)” value in the data set with CAL27 cells [1] (CAL27, 24 h, MTT, up to 100 μg/mL) is recorded as “clearly improved the cytotoxic effect”; in the data set on Het-1A cells [5] (Het-1A, 24 h, MTT, at 40 μM) it was “low”; in the data set on SCC15 cells (SCC15, 24 h, MTT, up to 100 μg/mL), “only slightly”.

Broadly, the IC50 is the concentration that inhibits the measured activity by half.
